Legend:
[1] = Peptide solubility evaluation: dissolution in DMSO, dilution in D5W with or without succinate; type: physicochemical; conditions: DMSO/D5W; Table 4; Y/N; diluted to 2 mg/ml; read-out: Solubility In DMSO/D5W
Method: In a representative procedure, peptides were weighed and corrected for % peptide content, and then dissolved in DMSO to a concentration of 50 mg/mL. The DMSO/Peptide solution was then diluted with 5 mM sodium succinate in D5W to a 2 mg/mL peptide concentration.
Additional peptide solubility conditions were tested. Peptides CS6709, CS6712, CS6720, CS6726, and CS6783 were weighed at approximately 10 mg each. The peptides were then dissolved in approximately 200 μL USP grade DMSO to obtain a 50 mg/mL concentration for each peptide. […] Additional 50 μL increments of DMSO were added to Peptide CS6709 up to 400 μL; for a total of 600 μL of DMSO.
Based on gross weight and peptide content, 15 mg (net weight) or slightly more of each individual peptide are weighed and 100% USP Grade DMSO […] is added to achieve a final peptide concentration of 50 mg/ml.

[2] = Peptide diluent matrix (precipitation on dilution of DMSO dissolved peptides); type: physicochemical; conditions: 5 peptides in one vial diluted to 400 μg/mL
Method: Additional peptide solubility conditions were tested. Peptides CS6709, CS6712, CS6720, CS6726, and CS6783 were weighed at approximately 10 mg each. The peptides were then dissolved in approximately 200 μL USP grade DMSO to obtain a 50 mg/mL concentration for each peptide. […] The sample appeared to be cloudy. […] The volume of CS6709 added to the single vial was 120 μL. […] Upon addition of the PBS pH 7.4, it was observed that one or more of the peptides had precipitated out. To determine which of the peptides precipitated, Applicants followed the matrix in Table 5 below using very small amounts (10-20 μL) of the DMSO dissolved peptides and adding these peptides to the various liquids.

For “H-LLTDRNTSGTTFTLLGVSDYPELQVPLFLVFLA-OH [CS6783]”, the solubility [1] was under 2000 µg/mL and the “Precipitation when PBS pH 7.4 was added as diluent to the peptide mixture” value [2] was “precipitate”.
